“And” between values parts separate entries of the source, which are not always exact repeats. Equal entries are not always repeated. Records with an inconclusive call do not appear. The source made the active and inactive calls. How the calls were made is not given here.
Tested on: Toxoplasma gondii growth in host cells, no IFN-gamma
Experiment: compound activity on host-cell Toxoplasma growth – dose response (AID 1259420);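 further: host cells were HeLa; final incubation lasted 72 hours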

Row | SMILES | AC50
1 | N#Cc1cccc(-c2ccc3c(c2)[C@@H]2[C@@H](CCN2S(=O)(=O)c2ccc(F)cc2)[C@@H](CO)N3)c1 | 14.5 µM
2 | O=C(c1cccn2c(-c3ccc(F)cc3)nnc12)N1CCC(O)(c2ccc(Cl)cc2)CC1 | > 39 µM (inactive)
3 | Cc1ccc(S(=O)(=O)Nc2ccc3c(c2)C(=O)N([C@@H](C)CO)C[C@@H](C)[C@H](CN(C)Cc2ccc(C(F)(F)F)cc2)O3)cc1 | > 20 µM (inactive)
4 | COc1ccc(-c2cnc3n2CCNC32CCN(C(=O)N3CCOCC3)CC2)cc1 | > 39 µM (inactive)
5 | O=C(Nc1ccc(F)cc1)N1C[C@@H]2N[C@H](C1)C2c1ccc(/C=C/c2ccccc2)cc1 (stereo not given in full) | 9.87 µM
6 | COc1ccc(-c2ccc3c(c2)[C@H]2[C@H](CCN2C(=O)c2cccc(F)c2)[C@H](CO)N3)cc1 | 14.3 µM
7 | CC(C)NC(=O)N1CC(=O)N2[C@@H](CO)[C@H](c3ccc(/C=C/c4ccccc4)cc3)[C@@H]2C1 | > 39 µM (inactive)
8 | O=S(=O)(c1ccccc1F)N1CC[C@@H]2[C@@H](CO)Nc3ccc(C4=CCCCC4)cc3[C@@H]21 | 11.8 µM
9 | COCCN1C(=O)CCC12CCC(NC(=O)c1cc(C)on1)CC2 (stereo not given) | > 39 µM (inactive)
10 | COc1cccc(-c2ccc(C3[C@H]4CNC[C@@H]3N4Cc3nccs3)cc2)c1 (stereo not given in full) | 18.7 µM
11 | O=C(c1cnccn1)N1CC(=O)N2[C@H](CO)[C@@H](c3ccc(-c4cccc(F)c4)cc3)[C@@H]2C1 | 20 µM
12 | Cc1ccc(S(=O)(=O)N2CC[C@@H]3[C@H]2c2cc(-c4cccc(C(=O)N(C)C)c4)ccc2N[C@@H]3CO)cc1 | 30.1 µM
13 | COc1ccc(-c2ccc3c(c2)[C@@H]2[C@@H](CCN2C(=O)c2cccc(F)c2)[C@H](CO)N3)cc1 | 11.3 µM
14 | COc1cccc(NC(=O)N2CC(=O)N3[C@H](C2)[C@@H](c2ccc(C#CCC4CCCC4)cc2)[C@@H]3CO)c1 | 15.8 µM and 22.4 µM
15 | Cc1cccc(-c2nc(CN(c3ccccc3)S(=O)(=O)c3ccccc3)c(C)o2)c1 | 17.4 µM
16 | O=C(c1ccc(F)cc1)N1CC(=O)N2[C@@H](CO)[C@@H](c3ccc(C#CCC4CCCC4)cc3)[C@@H]2C1 | 21.2 µM
17 | COc1ccc(S(=O)(=O)N(C)C[C@H]2Oc3c(NC(=O)c4nc5ccccc5s4)cccc3C(=O)N([C@@H](C)CO)C[C@@H]2C)cc1 | 11.3 µM and 1.88 µM
18 | CN(C[C@H]1[C@H](c2ccccc2)[C@@H](CO)N1CC1CC1)C(=O)c1ccc(F)cc1 | > 39 µM (inactive)
19 | COc1cccc(S(=O)(=O)N2CCCCN3[C@@H](CO)[C@H](c4ccc(C#CCC(C)C)cc4)[C@@H]3C2)c1 | 21.4 µM and 16.4 µM and 30.4 µM
20 | COc1ccccc1-c1ccc(C2[C@@H]3CN(S(=O)(=O)c4ccc(C)cc4)C[C@H]2N3)cc1 (stereo not given in full) | 15.2 µM and > 20 µM (inactive)
21 | COCC1CN(C(=O)c2cc(C)on2)Cc2c1cnn2CC1CC1 (stereo not given) | > 39 µM (inactive)
22 | CN(C)C(=O)c1cccc(-c2ccc3c(c2)[C@@H]2[C@@H](CCN2C(=O)Cc2ccccc2)[C@@H](CO)N3)c1 | 21.7 µM

Row | SMILES | AC50
23 | c1cnc(N2CCC(Oc3cnccn3)CC2)nc1 | 15.6 µM
24 | O=C(C[C@H]1C[C@@H]2CN(Cc3ccccc3)C[C@H]2O1)N1CCCCO1 | > 39 µM (inactive)
25 | COc1ccc(NC(=O)N2CCCCN3[C@H](C2)[C@@H](c2ccc(-c4ccccc4F)cc2)[C@@H]3CO)cc1 | 35.8 µM
26 | CCCC#Cc1ccc([C@@H]2[C@H]3CN(C(=O)Nc4cccc(F)c4)CC(=O)N3[C@H]2CO)cc1 | 29.4 µM and 14.9 µM
27 | COCCn1cc2c(n1)C(CNC(=O)CS(C)(=O)=O)OCC2 (stereo not given) | > 39 µM (inactive)
28 | CC1CCCCN1CCNc1nc(-c2ccc(Cl)cc2)nc2ccccc12 (stereo not given) | 11.8 µM
29 | Cc1nc2c(cnn2-c2ccccc2)c(=O)n1-c1cccc2ccccc12 | 10.9 µM
30 | COc1cccc(S(=O)(=O)N2CCCCN3[C@H](CO)[C@H](c4ccc(C#CCC(C)C)cc4)[C@H]3C2)c1 | 7.96 µM and 10.6 µM
31 | O=C(NC1CCCC1)N1CCCCN2[C@H](CO)[C@H](c3ccc(-c4cccnc4)cc3)[C@H]2C1 | 18.2 µM
32 | CCCCCCC(C)(C)c1ccc(C2CC(O)CCC2CCCO)c(O)c1 (stereo not given) | 17.9 µM
33 | Cc1cccc(-c2ccc([C@@H]3[C@H](CO)N4CCCCN(S(=O)(=O)c5ccccc5F)C[C@@H]34)cc2)c1 | 19.7 µM
34 | COc1ccc(S(=O)(=O)N2CCCCN3[C@H](CO)[C@@H](c4ccc(C#CCC(C)C)cc4)[C@H]3C2)cc1 | 12.8 µM and 7.95 µM
35 | CN(C)C(=O)c1ccc(-c2ccc([C@H]3[C@@H](CO)N4C(=O)CN(C(=O)CC5CC5)C[C@@H]34)cc2)cc1 | > 39 µM (inactive)
36 | C[C@@H]1CN([C@@H](C)CO)C(=O)Cc2cc(NC(=O)C3CCCCC3)ccc2O[C@@H]1CN(C)Cc1ccc(Cl)c(Cl)c1 | 13.9 µM
37 | COCC1CN(C(=O)Cc2ccsc2)Cc2nccn2C1 (stereo not given) | 28.3 µM
38 | Cc1ccc(S(=O)(=O)Nc2ccc3c(c2)C(=O)N([C@H](C)CO)C[C@H](C)[C@H](CN(C)Cc2ccc(C(F)(F)F)cc2)O3)cc1 | 18.5 µM
39 | CC(C)(Cc1ccc2ccccc2c1)NC[C@@H](O)COc1cccc(Cl)c1C#N | 12.3 µM
40 | CCCCCCCCCCCCCCCC[N+](C)(C)C | 15.3 µM
41 | C[C@@H]1CN([C@@H](C)CO)C(=O)c2cccc(NC(=O)NC3CCCCC3)c2O[C@H]1CN(C)Cc1ccc(C(F)(F)F)cc1 | > 39 µM (inactive)
42 | CC(C)C#Cc1ccc([C@H]2[C@@H](CO)N3C(=O)CN(S(=O)(=O)c4ccccc4)C[C@H]23)cc1 | > 39 µM (inactive)
43 | O=S(=O)(c1cccs1)N1CCCCN2[C@H](CO)[C@H](c3ccc(/C=C/c4ccccc4)cc3)[C@@H]2C1 | 29 µM
44 | O=C(c1ccc(F)cc1)N1CC(=O)N2[C@H](C1)[C@@H](c1ccc(C#CCC3CCCC3)cc1)[C@@H]2CO | 14.3 µM

Row | SMILES | AC50
45 | CN1C(=O)c2cc(NC(=O)c3cccc(F)c3)ccc2OC[C@@H]2O[C@H](CC(=O)NCC3CCCCC3)CC[C@@H]21 | > 39 µM (inactive)
46 | N#Cc1cccc(C(=O)N2CCC3C2CC(=O)N3Cc2ccncc2)c1 (stereo not given) | > 20 µM (inactive)
47 | O=C(c1cccc(F)c1)N1CCCCN2[C@H](CO)[C@H](c3ccc(C#CC4(O)CCCC4)cc3)[C@H]2C1 | 32.1 µM
48 | COc1ccc(-c2ccc3c(c2)[C@H]2[C@H](CCN2C(=O)c2cccc(F)c2)[C@@H](CO)N3)cc1 | 10.6 µM
49 | COc1cccc(CN2CCCCN3[C@@H](CO)[C@@H](c4ccc(-c5ccccc5OC)cc4)[C@@H]3C2)c1 | 15.7 µM
50 | COc1ccc(-c2nc(N3CCC(N4CCCCC4)CC3)c3ccccc3n2)cc1 | > 39 µM (inactive)
51 | O=C(C[C@@H]1CC[C@@H]2[C@H](COC[C@@H](O)CN2S(=O)(=O)c2ccccc2)O1)NCC1CCCCC1 | 33.4 µM
52 | C/C=C/c1ccc([C@H]2[C@@H](C#N)N(C(=O)NC3CCCCC3)[C@H]2CO)cc1 | 20.9 µM
53 | OC[C@@H]1Nc2ccc(-c3cccc(F)c3)cc2[C@H]2[C@@H]1CCN2Cc1ccc(F)cc1 | > 20 µM (inactive)
54 | Cc1cnn(C(C)C(=O)N2CCc3[nH]nc(-c4ccc(F)c(F)c4)c3C2)c1 (stereo not given) | > 39 µM (inactive)
55 | O=S(=O)(c1ccccc1F)N1CCC(c2nc3ccc(-c4ccncc4)cn3n2)CC1 | > 39 µM (inactive)
56 | CC(=O)NC1=NN(C(C)=O)C(C)(c2ccccc2)S1 (stereo not given) | > 20 µM (inactive)
57 | CCc1c(C)sc2c1CCN(Cc1nc(-c3cc(C)ccc3C)oc1C)C2c1ccccc1 (stereo not given) | 16.9 µM
58 | O=S1(=O)c2ccccc2O[C@H]2CCN(Cc3ccc(Cl)cc3)CC[C@H]2N1CC1CC1 | 22.5 µM
59 | Fc1cccc(CN2C[C@@H]3N[C@H](C2)C3c2ccc(/C=C/c3ccccc3)cc2)c1 (stereo not given in full) | 17.6 µM
60 | COc1cccc(S(=O)(=O)N2CCCCN3[C@H](CO)[C@H](c4ccc(C#CC5CC5)cc4)[C@H]3C2)c1 | 16.8 µM and 17 µM
61 | O=C(CC1CC1)N1CC[C@@H]2[C@@H](CO)Nc3ccc(-c4ccc(F)cc4)cc3[C@@H]21 | 20.2 µM
62 | Oc1[nH]c2ccccc2c1N=Nc1nc(Nc2ccccc2)nc(N2CCOCC2)n1 | 16.9 µM
63 | Cc1ccccc1S(=O)(=O)N1CCCCN2[C@H](CO)[C@H](c3ccc(C#CCN(C)C)cc3)[C@H]2C1 | 33.7 µM
64 | CCCCc1ccc(Nc2ncnc3c2cnn3-c2ccc(C)cc2C)cc1 | 11.6 µM
65 | Cc1ccc(N(Cc2nc(-c3cccc(Cl)c3)oc2C)S(=O)(=O)c2cccs2)cc1 | 8.34 µM
66 | C[C@@H]1CN([C@@H](C)CO)C(=O)c2cccc(NC(=O)NC3CCCCC3)c2O[C@@H]1CN(C)Cc1ccc(C(F)(F)F)cc1 | > 39 µM (inactive)

Row | SMILES | AC50
67 | COc1ccccc1C1CN(Cc2cccc(O)c2)Cc2ccccc2O1 (stereo not given) | 22.8 µM
68 | CN(C)C(=O)c1cccc(-c2ccc3c(c2)[C@H]2[C@H](CCN2C(=O)Cc2ccccc2)[C@H](CO)N3)c1 | 16.6 µM
69 | C[C@H](CO)N1C[C@H](C)[C@H](CN(C)C(=O)Nc2ccc(C(F)(F)F)cc2)Oc2c(NC(=O)c3ccc(-c4nccs4)cc3)cccc2C1=O | 9.48 µM
70 | O=C(O)CC1CCC(c2ccc(-c3ccc(Nc4ccc(C(F)(F)F)nc4)cn3)cc2)CC1 (stereo not given) | 17.2 µM
71 | CN(C)C(=O)c1ccc(-c2ccc3c(c2)[C@H]2[C@H](CCN2C(=O)C2CCCC2)[C@@H](CO)N3C)cc1 | 14.6 µM
72 | CC(C)C#Cc1ccc([C@H]2[C@@H](C#N)N(C(=O)c3cccc(F)c3)[C@H]2CO)cc1 | 26.4 µM
73 | CO[C@H]1CCN(Cc2ccoc2)[C@H]2CN(Cc3ccncc3)C[C@@H]12 | > 39 µM (inactive)
74 | COc1cccc(-c2ccc3c(c2)[C@@H]2[C@@H](CCN2S(=O)(=O)c2ccccc2F)[C@H](CO)N3)c1 | 10.9 µM
75 | O=C(Nc1cccnc1)c1cc(-c2cnc(-c3ccccc3)nc2)cn1CC1CC1 | 27.9 µM and 19.8 µM
76 | COc1cccc(CNC(=O)c2cc3c(s2)CCN3C(=O)c2ccc(F)cc2)c1 | 2.74 µM
77 | O=C(NCc1cccnc1)C1CC2CN(Cc3cccc(Cl)c3)CC1O2 (stereo not given) | 4.73 µM
78 | COc1cccc(-c2ccc3c(c2)[C@@H]2[C@@H](CCN2S(=O)(=O)c2ccccc2F)[C@@H](CO)N3)c1 | 16 µM
79 | O=S(=O)(c1ccccc1F)N1CC[C@H]2[C@H](CO)Nc3ccc(C4=CCCCC4)cc3[C@H]21 | 12.4 µM
80 | COCCC(=O)C1Cc2nc(-c3ccccc3)sc2N1CC1CC1 (stereo not given) | 25.2 µM
81 | Cc1cc(C(=O)Nc2ccc3c(c2)C(=O)N(C)[C@H]2CC[C@H](CC(=O)NCc4ccc(-c5ccccc5)cc4)O[C@H]2CO3)no1 | 14 µM
82 | CN(C)C(=O)COCC1CN(S(C)(=O)=O)Cc2nnn(C)c21 (stereo not given) | > 39 µM (inactive)
83 | Cc1cccc(OCC(=O)N2CCC3(CC2)Nc2ccc(Cl)cc2-n2cccc23)c1 | 13.7 µM
84 | COC(=O)C1CC23C=CNC4CCC5(c6ccccc6NC15C2C)C43 (stereo not given) | 19.4 µM
85 | COc1cccc(-c2nc3c(s2)CN(S(=O)(=O)c2cc(C)ccc2C)CC3)c1 | 7.12 µM

Source: PubChem BioAssay AID1259420 (Broad Institute, 2018)
